Consider four molecules from patent US20240409602A1, “PEPTIDE MODULATORS OF NEUROLIGIN 4-NEUREXIN 1-BETA AXIS FOR TREATMENT OF LIVER DISORDERS” (HADASIT MEDICAL RESEARCH SERVICES AND DEVELOPMENT LTD., priority 2022, published 2024).

In series [1] the test system is NK cells. In words: NK cell activation (CD107a) in monoculture, flow cytometry. Type of series: cell-based, human. From the text: (§1) Inhibitory Peptide synthesis: inhibitory peptide 1: MEQGEFLNYD (SEQ ID NO: 1), inhibitory peptide 2: QILMEQGEFLNYDIM (SEQ ID NO: 2), inhibitory peptide 3: […] (SEQ ID NO: 3), and a control peptide having a scrambled sequence: LEGEDQNFYM (SEQ ID NO: 7) were synthesized by Pepscan Ltd. at a purity of 98.3%.
(§2) Cells: primary NK cells were isolated from patients having advanced fibrosis, human hepatic stellate cells (LX2) were commercially purchased.
Monoculture conditions: peptides were supplemented to media of cultured NK cells for 6 h stimulation.
(§3) Fluorescence-activated cell sorting (FACS): Staining colors of antibodies was as follows: αSMA>PE, CD107>FITC, CD56>. After analysis using LSR Fortessa analyzer, raw data was transferred to analysis program FCS Express v7.0.
Three peptides potentially having an inhibitory effect on NLGn4-Nrx1β PPI were generated. The three peptides (peptide 1, peptide 2, and peptide 3) consist of different amino acid sequences (SEQ ID NO: 1, SEQ ID NO: 2, and SEQ ID NO: 3, respectively) that vary in length, all derived from the same binding site for the NLGn4X ligand β-neurexin. The active binding site includes a domain containing the amino acids 359-364 in NLGn4X and the epitopes critical for binding are E361, L363, H267, Y463, and E270.
Initially, peptides were screened for their effect on the activity of NK cells, which was evaluated by measuring the levels of CD107a activation marker. Monocultures of NK cells were stimulated with increasing concentrations of the potentially inhibitory NLGn4-Nrx1β PPI peptides (FIG. 1 and FIGS. 2A-B).
Background: Flow cytometry measures light scatter and fluorescence of single cells or particles in a stream.

Series [2] deals with CCl4-induced mice (acute hepatic fibrosis model). In words: Serum ALT by ELISA in CCl4 model. Format: in vivo. As to conditions: 5 or 10 mg/mice i.p. 3×/week for 4 weeks. The procedure:
(§4) Animal model: 40 WT naïve C57BL/6J male mice (12 weeks) were either induced for acute hepatic fibrosis by i.p injections of 0.5 μl pure carbon tetrachloride CCl4/g body weight (one to nine dilution in mineral oil) (CCl4; Sigma, C-5331) 3×/week for four weeks as an advanced model of hepatic fibrosis, or left untreated (induced n=32, control n=8 per experiment). NLGn4-Nrx1β PPI modulator peptide 1 was i.p injected to CCl4 induced mice as preventive doses from the beginning of the model starting at 1st week of CCl4 at a concentration of 5 and 10 mg/mice 3×/week for four weeks (5 mg/mice n=8, 10 mg/mice n=8). A scrambled peptide was also i.p injected to CCl4 induced mice (5 mg/mice n=8, 10 mg/mice n=8). Food and water intake were recorded every week. Mice were sacrificed two days after the final CCl4 injection. To this end, the animals were weighed and anesthetized with inhaled 5% isoflurane for 10 seconds before cervical dislocation.
(§5) Histological and biochemical assessment of mice livers: The posterior one-third of the liver was fixed in 4% formalin for 24 hours and then paraffin-embedded in an automated tissue processor. […] Serum ALT concentrations were determined using ELISA. […]

For series [3] the test system is unchanged. In words: Liver histology (H&E, Sirius Red, Masson's trichrome) in CCl4 model. Format: in vivo. As to conditions: 5 or 10 mg/mice i.p. 3×/week for 4 weeks. The procedure:
as §4, §5

Series [4] concerns β-neurexin. In words: β-neurexin expression in liver by RT-PCR in CCl4 model. As to conditions: relative to naïve mice, 5 or 10 mg/mice i.p. 3×/week for 4 weeks. Type of series: in vivo.
The subject of series [5] is liver NK cells. In words: F-actin expression in liver NK cells (western blot, immunofluorescence) in CCl4 model. Type of series: in vivo, mice. As to conditions: immune-stained liver tissue, confocal microscopy. How it is done: as §4, with “A scrambled peptide was also i.p injected to CCl4 induced mice (5 mg/mice n=8, 10 mg/mice n=8).” left out, “Mice were sacrificed two days after the final CCl4 injection. To this end, the animals were weighed and anesthetized with inhaled 5% isoflurane for 10 seconds before cervical dislocation.” left out
Western blot analysis: Liver protein extracts were homogenized with buffer (50 mmol/L Tris-HCl [pH 7.61, 0.25% Triton-X 100, 0.15 M NaCl, 10 mM CaCl2) and complete mini EDTA-free protease inhibitor cocktail (Roche Diagnostics, Mannheim, Germany). […] Immunoreactivity was detected using an ECL kit (Abcam).
Immunofluorescence staining: For deparaffinization, paraffin-embedded sections were placed at 60° C. for 15 minutes, incubated in xylene at room temperature for 15 minutes, and then transferred sequentially to 100% EtOH, 95% EtOH, 70% EtOH, and 50% EtOH for four minutes each at room temperature. […] An argon laser (488 nm excitation) was used to detect green fluorescence, and an Alexa Fluor laser (552 nm) to detect red fluorescence. […]
On the technique in general: Immunoblotting shows a protein as a band on a membrane.

Series [6] relates to Hep3B cells. Description: Cell cycle analysis of Hep3B cells by flow cytometry, PI staining. Format: cell-based, human. As to conditions: 8000 ng/ml. How it is done: Cell cycle analysis by Flow cytometry: evaluation of cell cycle stage of Hep3B HCC cells, was performed according to a standard protocol, using Propidium-Iodide (PI)-staining of nuclei. To […] attenuation of the proliferative capabilities of HCC cells following modulation by peptide 1, the stage of the cell cycle of Hep3B cells treated with 8000 ng/ml peptide 1 or with a control peptide having a scrambled sequence was evaluate using flow cytometry and Propidium Iodide (PI)-staining.

Series [7] has as its system LX2 cells. Description: LX2 cell activity (αSMA) in monoculture, flow cytometry. Type of series: cell-based, human. As to conditions: monoculture, 2000, 4000, 8000 ng/ml (peptide 3: 2000 or 4000 ng/ml), vs untreated.
Text: as §1, §2, §3
Following that, the NLGn4-Nrx1β PPI peptides were screened for their effect on the activity of LX2 cells, which was evaluated by measuring the levels of αSMA activation marker. Monocultures of LX2 cells were stimulated with increasing concentrations of the NLGn4-Nrx1βPPI peptides (FIGS. 3A-C).

In series [8] the test system is LX2 cells. Description: αSMA in LX2 cells co-cultured with peptide pre-activated NK cells, flow cytometry. Format: cell-based, human. The procedure:
as §2
Co-culture conditions: co-cultures conditions—peptides were supplemented to media of cultured NK cells for 6 h stimulation followed by a wash, trypsinization, and coculturing on LX2 cells for an additional 24 h.
as §3
To test if NLGn4-Nrx1β PPI inhibitory peptides mediated deactivation of LX2 cells is more prominent in the presence of NK cells, a co-culture setting was established for LX2 cells in the presence or absence of activated NK cells (FIGS. 4A-C).
In this setting, NK cells were stimulated with increasing concentrations of NLGn4-Nrx1βPPI inhibitory peptides before co-culturing them with LX2 cells, to examine whether pre-activation makes them more functional in deactivating LX2 cells.

Series [9] addresses neurexin 1β (Nrx1β) expressed on Hep3B hepatocellular carcinoma cells (human, UniProt Q9ULB1-3 31-1547). Description: cell-based or functional assay.

No end group written: not given here.

neurexin 1β (Nrx1β) expressed on Hep3B hepatocellular carcinoma cells, sequence (Q9ULB1 other isoform, or with tags, fused parts or gaps limits assumed): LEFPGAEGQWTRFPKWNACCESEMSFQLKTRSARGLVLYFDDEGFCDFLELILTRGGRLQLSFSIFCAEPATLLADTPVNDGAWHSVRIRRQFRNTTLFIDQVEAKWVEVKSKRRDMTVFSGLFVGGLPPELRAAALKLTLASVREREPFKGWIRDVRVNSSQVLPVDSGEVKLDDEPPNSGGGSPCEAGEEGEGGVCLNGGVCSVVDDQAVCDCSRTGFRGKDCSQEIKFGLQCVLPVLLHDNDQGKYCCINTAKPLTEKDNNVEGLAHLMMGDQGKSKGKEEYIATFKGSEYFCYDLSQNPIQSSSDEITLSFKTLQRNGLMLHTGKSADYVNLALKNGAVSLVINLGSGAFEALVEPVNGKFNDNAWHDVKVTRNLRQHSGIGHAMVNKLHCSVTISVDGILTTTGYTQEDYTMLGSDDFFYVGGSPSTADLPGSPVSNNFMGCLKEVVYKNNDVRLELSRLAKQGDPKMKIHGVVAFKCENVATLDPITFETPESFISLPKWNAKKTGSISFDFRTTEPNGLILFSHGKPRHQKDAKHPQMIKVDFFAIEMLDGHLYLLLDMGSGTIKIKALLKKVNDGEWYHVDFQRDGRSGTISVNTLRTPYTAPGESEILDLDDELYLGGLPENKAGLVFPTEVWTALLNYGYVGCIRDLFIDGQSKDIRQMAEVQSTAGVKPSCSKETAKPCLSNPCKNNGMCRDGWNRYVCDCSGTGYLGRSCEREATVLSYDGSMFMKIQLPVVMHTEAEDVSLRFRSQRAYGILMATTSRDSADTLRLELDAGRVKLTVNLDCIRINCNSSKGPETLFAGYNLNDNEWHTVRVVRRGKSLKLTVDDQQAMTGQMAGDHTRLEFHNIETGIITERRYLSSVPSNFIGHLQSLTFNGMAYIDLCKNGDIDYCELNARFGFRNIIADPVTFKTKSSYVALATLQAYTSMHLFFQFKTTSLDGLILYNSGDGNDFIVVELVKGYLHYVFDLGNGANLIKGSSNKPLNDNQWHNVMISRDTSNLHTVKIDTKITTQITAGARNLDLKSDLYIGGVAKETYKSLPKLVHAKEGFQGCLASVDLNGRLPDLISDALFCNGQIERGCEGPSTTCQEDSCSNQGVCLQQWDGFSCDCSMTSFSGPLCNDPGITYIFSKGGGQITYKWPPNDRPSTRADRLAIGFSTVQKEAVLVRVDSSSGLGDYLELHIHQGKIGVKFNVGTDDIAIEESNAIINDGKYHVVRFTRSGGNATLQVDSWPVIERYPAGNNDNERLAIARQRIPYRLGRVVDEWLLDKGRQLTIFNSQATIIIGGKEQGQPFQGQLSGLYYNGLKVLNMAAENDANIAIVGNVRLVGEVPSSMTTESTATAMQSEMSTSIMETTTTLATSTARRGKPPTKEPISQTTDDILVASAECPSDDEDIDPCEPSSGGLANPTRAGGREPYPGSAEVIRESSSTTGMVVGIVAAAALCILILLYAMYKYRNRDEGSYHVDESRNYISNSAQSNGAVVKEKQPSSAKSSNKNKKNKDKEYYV

In the case of DPQILMEQGEFLNYDIMLGV [peptide 3], the “toxicity to NK cells” value in series [1] (inferred from CD107a decrease at higher peptide concentrations) is given as “may be toxic to the cells”.
Regarding LEGEDQNFYM [scrambled peptide], in series [2], the “levels of serum ALT” value is “significant increase in ALT levels”. In addition, the “collagen deposition / fibrous dense tissue (Sirius Red staining)” value in series [3] was “increased collagen deposition in perisinusoidal areas”. Besides, the “levels of β-neurexin in liver” value in series [4] was “elevated levels of β-neurexin”. Further, the “F-actin inside NK cells, co-localization with NKP46 (immunofluorescence)” value in series [5] is recorded as “not seen inside NK cells”. For the same molecule, in series [6], the “percentage of cells existing at a state of G1” value is listed as 38%, the “percentage of cells existing at a state of G2-M phase” value is 25% and the “percentage of cells existing at a state of S-phase” value worked out at 11%.
Regarding QILMEQGEFLNYDIM [peptide 2], in series [1] (monoculture, 6 h stimulation, 2000, 4000, 8000 ng/ml (peptide 3: 2000 or 4000 ng/ml), vs untreated), the “activity of NK cells (levels of CD107a)” value is recorded as “elevated the activity of the cells”. In addition, the “dose dependence of effect on NK cell activity (CD107a)” value in [1] (monoculture, increasing concentrations 2000-8000 ng/ml) is given as “not dose-dependent”. The “activity of LX2 cells (levels of αSMA)” value in series [7] is “deactivation of the cells”. Further, the “dose dependence of effect in co-culture (αSMA)” value in [8] (NK cells pre-activated with increasing concentrations) is reported as “not dose-dependent”. Further, in series [8] (NK cells pre-stimulated 6 h with 2000-8000 ng/ml peptide, co-culture 24 h), the “activity of LX2 cells (levels of αSMA) in co-culture with pre-activated NK cells” value is given as “downregulated the activity of the LX2 cells”.
MEQGEFLNYD [NLGn4-Nrx1β PPI inhibitory peptide 1]: in series [9], the “apoptotic marker phosphatidylserine (Annexin-V+/PI-) in Hep3B cells (flow cytometry), peptide 1 against scrambled control peptide” value came to 3 fold increase; the “expression of PDGFRA and MKI67 proliferation markers in Hep3B cells (flow cytometry), peptide 1 against scrambled control peptide” value was about 2 fold reduction; the “expression of the necrotic marker CDNK2A in Hep3B cells (flow cytometry), peptide 1 against scrambled control peptide” value turned out to be 2 fold reduction; the “percentage of Hep3B cells in G1 phase (PI staining, flow cytometry), 8000 ng/ml peptide 1 against scrambled control peptide” value was about 2 fold increase. For the same molecule, in series [9], the “percentage of Hep3B cells in G2-M phase (PI staining, flow cytometry), 8000 ng/ml peptide 1 against scrambled control peptide” value turned out to be 2.5 fold decrease; the “percentage of Hep3B cells in S-phase (PI staining, flow cytometry), 8000 ng/ml peptide 1 against scrambled control peptide” value was about 2 fold decrease; the “phosphorylated AKT/mTOR/P70S6K in Hep3B cells (flow cytometry), peptide 1 against scrambled control peptide” value turned out to be 2 fold reduction.
